Results published in patent US9254268B2, “Compositions comprising lipophilic active compounds and method for their preparation” (SOLUBEST LTD., priority 2007, dated 2016).

Columns and labels:
[1] = Thermal properties by Differential Scanning Calorimetry (DSC); details: for melting enthalpy (melting energy) / melting temperature (endothermic peak): DSC, after preparation
[2] = Albendazole dissolution in 0.05 M sodium lauryl sulfate; format: physicochemical; details: after 15 min
Experimental: (iv) The dissolution test was performed in accordance with USP Dissolution Method <711> and FDA Dissolution Methods for Drug Products using the paddle apparatus Distek model 2100A. The quantification was performed using UV spectrophotometer. Appropriate amount of spray dried powders or tablets as well as control powders or tablets were dissolved in 1000 ml of 0.05 M water solution of sodium lauryl sulfate, at 37° C., […]

[3] = Particle size of aqueous dispersions by Dynamic Light Scattering; format: physicochemical; details: powder suspended in water
Experimental: (vii) Particle size of the nanodispersions: measurements were performed using Dynamic Light Scattering (DLS). The method was run on the Malvern Zen 3600, Zetasizer-nano series. The samples were prepared by suspending spray-dried powder in water (0.075-0.1%) at 25-30° C. First, water was added to the appropriate amount of the powder and the mixture was left for 15 min. Then, the suspension was magnetically stirred during 4 min at 300 rpm and 1 ml of the suspension was transferred to a cuvette for measurement. The cuvette was incubated inside the instrument during 5 min for stabilization prior measurement. A series of at least 5 repeating measurements was carried out at 25-30° C. Following parameters are reported from the analysis of volume weighed size distribution: polydispersity index (PDI), the diameter of the main fraction (Z-vol), volume % of main fraction.
The powders produced as described in Examples 1-9 have been suspended in deionized water as described in method (vii) of the section Materials and Methods.
In the Dynamic Light Scattering method, we used two main parameters to characterize the colloidal system: the hydrodynamic diameter of the particles and the width of distribution (polydispersity). […]

[4] = Dissolution of resveratrol in Model Fasted Duodenal Solution (MFDS); format: physicochemical
Experimental: The Model Fasted Duodenal Solution (MFDS) was prepared as follows: a mixture of sodium chloride (3.093 g), sodium hydrophosphate (1.719 g) and sodium taurocholate (0.8065 g) was dissolved in deionized water (300 g) using ultrasonic bath. Lecithin (0.2925 g) was dissolved in 2 ml methylene chloride and added to the buffered solution of sodium taurocholate. The resulting emulsion was stirred for 5 min and then methylene chloride was evaporated under vacuum. The obtained clear micellar solution was adjusted to the volume of 500 ml by deionized water.
For the test procedure, the test resveratrol formulations or raw resveratrol powder (10 mg) were placed into 2 ml microcentrifuge tube and MFDS (1.8 ml) was added to the each tube. The tubes were gently shaken (about 50 rpm) at 37° C. and samplings were taken at 10, 20, 40, 60 and 120 min. For this purpose, the tubes were vortexed at the highest speed for 60 seconds and then centrifuged at 13 000 G for 60 seconds. The solid-free supernatant (0.4 ml) was mixed with 0.4 ml diluent (30% water adjusted to pH 2.5 with phosphoric acid and 70% acetonitrile) and this solution was inserted into an HPLC instrument for determination of resveratrol concentration.

## CC(C)OC(=O)C(C)(C)Oc1ccc(C(=O)c2ccc(Cl)cc2)cc1 [Fenofibrate starting material, Fenofibrate]
[1]
  melting enthalpy (melting energy): 74.3 J/g
  melting temperature (endothermic peak): around 82 °C

## CCCSc1ccc2nc(NC(=O)OC)[nH]c2c1 [Raw albendazole crystalline powder, Albendazole]
[2]
  albendazole dissolved: 16.6%
[1]
  melting enthalpy (melting energy): 209.7 J/g
  melting temperature (endothermic peak): around 215 °C

## CC(C)c1c(C(=O)Nc2ccccc2)c(-c2ccccc2)c(-c2ccc(F)cc2)n1CC[C@@H](O)C[C@@H](O)CC(=O)O [Example 18, Atorvastatin]
[3]
  kind of dispersion formed in water (observation): coarse suspensions with large visible particles
[1]; after storage of six months, attributed to beginning of crystallization
  broad DSC peak, range: 116-183 °C

## Oc1ccc(C=Cc2cc(O)cc(O)c2)cc1 [Resveratrol raw powder, Resveratrol]
[4]; 10 min, MFDS, 37° C.
  Concentration of resveratrol: 76.65 µg/mL
[4]; 20 min
  Concentration of resveratrol: 103.15 µg/mL
[4]; 40 min
  Concentration of resveratrol: 119.3 µg/mL
[4]; 60 min
  Concentration of resveratrol: 121.05 µg/mL
[4]; 120 min
  Concentration of resveratrol: 155.6 µg/mL
